Laboratory results reported in patent publication US8530489B2 (Vertex Pharmaceuticals Incorporated, priority 2006, dated 2013).

Experiments:
Type in all cases: biochemical
PLK3 (S38-A340) = target: T1, PLK3 (S38-A340) (Homo sapiens, UniProt Q9H4B4); test: PLK3 Inhibition Assay (radioactive-phosphate incorporation); settings: selectivity ratio, PLK3 over PLK1
T1 construct: in the presence of 5 nM PLK3 (S38-A340)
Description: (§1) The compounds of the present invention are evaluated as inhibitors of human PLK kinase using the following assays.
Compounds were screened for their ability to inhibit PLK3 using a radioactive-phosphate incorporation assay. Assays were carried out in a mixture of 25 mM HEPES (pH 7.5), 10 mM MgCl2, and 1 mM DTT. Final substrate concentrations were 75 μM [γ-33P]ATP (60 mCi 33P ATP/mmol ATP, Amersham Pharmacia Biotech/Sigma Chemicals) and 10 μM peptide (SAM68 protein Δ332-443). Assays were carried out at 25° C. in the presence of 5 nM PLK3 (S38-A340). An assay stock buffer solution was prepared containing all of the reagents listed above, with the exception of ATP and the test compound of interest. 30 μL of the stock solution was placed in a 96 well plate followed by addition of 2 μL of DMSO stock containing serial dilutions of the test compound (typically starting from a final concentration of 10 μM with 2-fold serial dilutions) in duplicate (final DMSO concentration 5%). The plate was pre-incubated for 10 minutes at 25° C. and the reaction initiated by addition of 8 μL [γ-33P]ATP (final concentration 75 μM).
The reaction was stopped after 60 minutes by the addition of 100 μL 0.14M phosphoric acid. A multiscreen phosphocellulose filter 96-well plate (Millipore, Cat No. MAPHN0B50) was pretreated with 100 μL 0.2M phosphoric acid prior to the addition of 125 μL of the stopped assay mixture. The plate was washed with 4×200 μL 0.2 M phosphoric acid. After drying, 100 μL Optiphase ‘SuperMix’ liquid scintillation cocktail (Perkin Elmer) was added to the well prior to scintillation counting (1450 Microbeta Liquid Scintillation Counter, Wallac).
(§2) After removing mean background values for all of the data points, Ki(app) data were calculated from non-linear regression analysis of the initial rate data using the Prism software package (GraphPad Prism version 3.0cx for Macintosh, GraphPad Software, San Diego Calif., USA).

PLK1 = PLK1 (Homo sapiens, UniProt P53350); test: PLK1 Inhibition Assay I (radioactive-phosphate incorporation); settings: Ki(app); PLK1 Inhibition Assay I or II (table does not say which)
How it was run: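 Ki(app) values came from non-linear regression of initial rates after background subtraction, with phosphopeptide measured by phosphocellulose filter binding and scintillation counting. PLK1 at 2 nM was preincubated with compound (typically from 10 μM, 2-fold dilutions) for 10 min, then run 240 min at 25° C with 350 μM [γ-33P]ATP and 450 μM peptide substrate in HEPES pH 7.5 buffer.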

PLK2 = PLK2 (Homo sapiens, UniProt Q9NYY3); test: PLK2 Inhibition Assay (radioactive-phosphate incorporation); settings: selectivity ratio, PLK2 over PLK1
Description: as §1
Compounds were screened for their ability to inhibit PLK2 using a radioactive-phosphate incorporation assay. Assays were carried out in a mixture of 25 mM HEPES (pH 7.5), 10 mM MgCl2, 0.1% BSA, and 2 mM DTT. Final substrate concentrations were 200 μM [γ-33P]ATP (57 mCi 33P ATP/mmol ATP, Amersham Pharmacia Biotech/Sigma Chemicals) and 300 μM peptide (KKKISDELMDATFADQEAK) [SEQ ID:3]. Assays were carried out at 25° C. in the presence of 25 nM PLK2. An assay stock buffer solution was prepared containing all of the reagents listed above, with the exception of ATP and the test compound of interest. 30 μL of the stock solution was placed in a 96 well plate followed by addition of 2 μL of DMSO stock containing serial dilutions of the test compound (typically starting from a final concentration of 10 μM with 2-fold serial dilutions) in duplicate (final DMSO concentration 5%). The plate was pre-incubated for 10 minutes at 25° C. and the reaction initiated by addition of 8 μL [γ-33P]ATP (final concentration 200 μM).
The reaction was stopped after 90 minutes by the addition of 100 μL 0.14 M phosphoric acid. A multiscreen phosphocellulose filter 96-well plate (Millipore, Cat No. MAPHN0B50) was pretreated with 100 μL 0.2M phosphoric acid prior to the addition of 125 μL of the stopped assay mixture. The plate was washed with 4×200 μL 0.2 M phosphoric acid. After drying, 100 μL Optiphase ‘SuperMix’ liquid scintillation cocktail (Perkin Elmer) was added to the well prior to scintillation counting (1450 Microbeta Liquid Scintillation Counter, Wallac).
as §2

T1 sequence (Q9H4B4 58-340 limits assumed): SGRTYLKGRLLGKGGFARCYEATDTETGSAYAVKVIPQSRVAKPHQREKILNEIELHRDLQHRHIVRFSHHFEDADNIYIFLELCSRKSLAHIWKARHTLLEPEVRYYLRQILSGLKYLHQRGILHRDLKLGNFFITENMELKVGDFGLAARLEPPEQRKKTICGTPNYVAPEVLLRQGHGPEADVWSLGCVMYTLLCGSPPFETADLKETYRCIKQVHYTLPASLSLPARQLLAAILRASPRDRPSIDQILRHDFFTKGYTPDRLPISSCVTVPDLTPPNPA
PLK2, sequence (Q9NYY3 whole entry): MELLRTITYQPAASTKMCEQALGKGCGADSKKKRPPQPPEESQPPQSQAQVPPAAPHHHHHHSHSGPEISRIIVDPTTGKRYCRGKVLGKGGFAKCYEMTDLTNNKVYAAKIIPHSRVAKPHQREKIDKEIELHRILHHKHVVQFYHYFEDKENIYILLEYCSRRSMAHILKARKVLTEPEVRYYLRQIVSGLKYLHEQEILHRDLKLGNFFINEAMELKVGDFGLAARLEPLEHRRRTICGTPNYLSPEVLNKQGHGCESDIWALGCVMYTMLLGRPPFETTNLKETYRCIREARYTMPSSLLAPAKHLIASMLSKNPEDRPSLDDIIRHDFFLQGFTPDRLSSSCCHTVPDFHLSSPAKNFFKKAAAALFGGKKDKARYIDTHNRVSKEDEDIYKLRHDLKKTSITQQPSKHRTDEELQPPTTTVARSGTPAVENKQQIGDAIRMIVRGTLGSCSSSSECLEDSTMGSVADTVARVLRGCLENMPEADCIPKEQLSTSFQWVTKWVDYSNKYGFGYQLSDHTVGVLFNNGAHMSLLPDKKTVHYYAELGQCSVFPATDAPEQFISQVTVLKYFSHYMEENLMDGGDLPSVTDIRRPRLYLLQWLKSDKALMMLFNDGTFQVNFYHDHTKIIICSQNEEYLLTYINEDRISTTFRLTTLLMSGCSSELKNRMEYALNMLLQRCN
PLK1, sequence (P53350 whole entry): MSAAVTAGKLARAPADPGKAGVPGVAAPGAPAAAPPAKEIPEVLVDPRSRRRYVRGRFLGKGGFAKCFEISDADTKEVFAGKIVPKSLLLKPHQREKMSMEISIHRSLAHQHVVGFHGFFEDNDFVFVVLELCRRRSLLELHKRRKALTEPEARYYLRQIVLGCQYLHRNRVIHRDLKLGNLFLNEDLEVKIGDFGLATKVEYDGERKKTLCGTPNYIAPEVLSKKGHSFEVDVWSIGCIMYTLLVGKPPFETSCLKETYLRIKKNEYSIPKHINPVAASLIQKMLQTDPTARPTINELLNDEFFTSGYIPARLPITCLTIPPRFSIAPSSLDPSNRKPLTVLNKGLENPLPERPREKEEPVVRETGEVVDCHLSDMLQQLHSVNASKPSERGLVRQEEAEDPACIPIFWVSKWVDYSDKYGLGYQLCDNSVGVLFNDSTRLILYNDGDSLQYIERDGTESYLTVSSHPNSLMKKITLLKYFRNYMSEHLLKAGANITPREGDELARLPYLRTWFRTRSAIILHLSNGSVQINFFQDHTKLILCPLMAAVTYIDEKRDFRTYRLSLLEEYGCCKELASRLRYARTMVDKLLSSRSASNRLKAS

## C[C@@H](Nc1ncc(C#N)c(-c2c[nH]c3ncc(C(F)(F)F)cc23)n1)c1ccc(N2CCN(C)CC2)nc1 (single isomer, unassigned) [Compound I-147]
PLK3 (S38-A340)
  Ki(PLK3)/Ki(PLK1): 186
PLK1
  Ki: < 3 nM
PLK2
  Ki(PLK2)/Ki(PLK1): 523

## CC(Nc1ncc(C#N)c(-c2c[nH]c3ncc(C(F)(F)F)cc23)n1)c1ccc(N2CCN(C)CC2)cc1 (centres unmarked) [Compound I-102, 2-(1-(4-(4-methylpiperazin-1-yl)phenyl)ethylamino)-4-(5-(trifluoromethyl)-1H-pyrrolo[2,3-b]pyridin-3-yl)pyrimidine-5-carbonitrile]
PLK3 (S38-A340)
  Ki(PLK3)/Ki(PLK1): 28
PLK1
  Ki: < 3 nM
PLK2
  Ki(PLK2)/Ki(PLK1): 113

## CC(Nc1ncc(C#N)c(-c2c[nH]c3ncc(C(F)(F)F)cc23)n1)c1ccc(N2CCNCC2)cc1 (centres unmarked) [Compound I-124, 2-(1-(4-(piperazin-1-yl)phenyl)ethylamino)-4-(5-(trifluoromethyl)-1H-pyrrolo[2,3-b]pyridin-3-yl)pyrimidine-5-carbonitrile]
PLK3 (S38-A340)
  Ki(PLK3)/Ki(PLK1): 185
PLK1
  Ki: < 3 nM
PLK2
  Ki(PLK2)/Ki(PLK1): 323

## CC(Nc1ncc(C#N)c(-c2c[nH]c3ncc(C(F)(F)F)cc23)n1)c1ccc(N2CCCN(C)CC2)cc1 (centres unmarked) [Compound I-126, 2-(1-(4-(4-methyl-1,4-diazepan-1-yl)phenyl)ethylamino)-4-(5-(trifluoromethyl)-1H-pyrrolo[2,3-b]pyridin-3-yl)pyrimidine-5-carbonitrile]
PLK3 (S38-A340)
  Ki(PLK3)/Ki(PLK1): 126
PLK1
  Ki: < 3 nM
PLK2
  Ki(PLK2)/Ki(PLK1): 211

## C[C@@H](Nc1ncc(C#N)c(-c2c[nH]c3ncc(C(F)(F)F)cc23)n1)c1ccc(N2CCN(C)CC2)cc1 [Compound I-127, 2-((R)-1-(4-(4-methylpiperazin-1-yl)phenyl)ethylamino)-4-(5-(trifluoromethyl)-1H-pyrrolo[2,3-b]pyridin-3-yl)pyrimidine-5-carbonitrile]
PLK3 (S38-A340)
  Ki(PLK3)/Ki(PLK1): 140
PLK1
  Ki: < 3 nM
PLK2
  Ki(PLK2)/Ki(PLK1): 210

## CC(Nc1ncc(C#N)c(-c2c[nH]c3ncc(C(F)(F)F)cc23)n1)c1ccc(N2CCCNCC2)cc1 (centres unmarked) [Compound I-131, 2-(1-(4-(1,4-diazepan-1-yl)phenyl)ethylamino)-4-(5-(trifluoromethyl)-1H-pyrrolo[2,3-b]pyridin-3-yl)pyrimidine-5-carbonitrile]
PLK3 (S38-A340)
  Ki(PLK3)/Ki(PLK1): 163
PLK1
  Ki: < 3 nM
PLK2
  Ki(PLK2)/Ki(PLK1): 180

## CC(Nc1ncc(C#N)c(-c2c[nH]c3ncc(C(F)(F)F)cc23)n1)c1ccc(N2CCN(C)CC2)nc1 (centres unmarked) [Compound I-139, 2-(1-(6-(4-methylpiperazin-1-yl)pyridin-3-yl)ethylamino)-4-(5-(trifluoromethyl)-1H-pyrrolo[2,3-b]pyridin-3-yl)pyrimidine-5-carbonitrile]
PLK3 (S38-A340)
  Ki(PLK3)/Ki(PLK1): 456
PLK1
  Ki: < 3 nM
PLK2
  Ki(PLK2)/Ki(PLK1): 1000

## C[C@@H](Nc1ncc(C#N)c(-c2c[nH]c3ncc(C(F)(F)F)cc23)n1)c1ccc(N2CCN(C)CC2)c(F)c1 [Compound I-142, 2-((R)-1-(3-fluoro-4-(4-methylpiperazin-1-yl)phenyl)ethylamino)-4-(5-(trifluoromethyl)-1H-pyrrolo[2,3-b]pyridin-3-yl)pyrimidine-5-carbonitrile]
PLK3 (S38-A340)
  Ki(PLK3)/Ki(PLK1): <23
PLK1
  Ki: < 3 nM
PLK2
  Ki(PLK2)/Ki(PLK1): <30

## C[C@H](Nc1ncc(C#N)c(-c2c[nH]c3ncc(C(F)(F)F)cc23)n1)c1ccc(N2CCN(C)CC2)nc1 [Compound I-148]
PLK3 (S38-A340)
  Ki(PLK3)/Ki(PLK1): 70
PLK1
  Ki: 3 to 40 nM
PLK2
  Ki(PLK2)/Ki(PLK1): 63

## C[C@@H](Nc1ncc(C#N)c(-c2c[nH]c3ncc(C(F)(F)F)cc23)n1)c1ccc(N2CCN(C)CC2)cc1F [Compound I-149, 2-((R)-1-(2-fluoro-4-(4-methylpiperazin-1-yl)phenyl)ethylamino)-4-(5-(trifluoromethyl)-1H-pyrrolo[2,3-b]pyridin-3-yl)pyrimidine-5-carbonitrile]
PLK3 (S38-A340)
  Ki(PLK3)/Ki(PLK1): <100
PLK1
  Ki: < 3 nM
PLK2
  Ki(PLK2)/Ki(PLK1): <130

## CC(Nc1ncc(C#N)c(-c2c[nH]c3ncc(C(F)(F)F)cc23)n1)c1ccc(N2CCNCC2)nc1 (centres unmarked) [Compound I-167, 2-(1-(6-(piperazin-1-yl)pyridin-3-yl)ethylamino)-4-(5-(trifluoromethyl)-1H-pyrrolo[2,3-b]pyridin-3-yl)pyrimidine-5-carbonitrile]
PLK3 (S38-A340)
  Ki(PLK3)/Ki(PLK1): 586
PLK1
  Ki: < 3 nM
PLK2
  Ki(PLK2)/Ki(PLK1): 914

## C[C@@H](Nc1ncc(C#N)c(-c2c[nH]c3ncc(C(F)(F)F)cc23)n1)c1ccc(N2CCNCC2)nc1 [Compound I-267, 2-((R)-1-(6-(piperazin-1-yl)pyridin-3-yl)ethylamino)-4-(5-(trifluoromethyl)-1H-pyrrolo[2,3-b]pyridin-3-yl)pyrimidine-5-carbonitrile]
PLK1
  Ki: < 3 nM
PLK2
  Ki(PLK2)/Ki(PLK1): 1152

## C[C@@H](Nc1ncc(C#N)c(-c2c[nH]c3ncc(C(F)(F)F)cc23)n1)c1cnc(N[C@H]2CCN(C)C2)nc1 [Compound I-268, 2-((R)-1-(2-((S)-1-methylpyrrolidin-3-ylamino)pyrimidin-5-yl)ethylamino)-4-(5-(trifluoromethyl)-1H-pyrrolo[2,3-b]pyridin-3-yl)pyrimidine-5-carbonitrile]
PLK3 (S38-A340)
  Ki(PLK3)/Ki(PLK1): 141
PLK1
  Ki: < 3 nM
PLK2
  Ki(PLK2)/Ki(PLK1): 293

## C[C@@H]1CN(c2ccc([C@@H](C)Nc3ncc(C#N)c(-c4c[nH]c5ncc(C(F)(F)F)cc45)n3)cn2)CCN1 [Compound I-274, 2-((R)-1-(6-((R)-3-methylpiperazin-1-yl)pyridin-3-yl)ethylamino)-4-(5-(trifluoromethyl)-1H-pyrrolo[2,3-b]pyridin-3-yl)pyrimidine-5-carbonitrile]
PLK1
  Ki: < 3 nM
PLK2
  Ki(PLK2)/Ki(PLK1): 4074

## C[C@@H]1CN(c2ccc([C@@H](C)Nc3ncc(C#N)c(-c4c[nH]c5ncc(C(F)(F)F)cc45)n3)cn2)C[C@H](C)N1 [Compound I-276, 2-((R)-1-(6-((3S,5R)-3,5-dimethylpiperazin-1-yl)pyridin-3-yl)ethylamino)-4-(5-(trifluoromethyl)-1H-pyrrolo[2,3-b]pyridin-3-yl)pyrimidine-5-carbonitrile]
PLK1
  Ki: < 3 nM
PLK2
  Ki(PLK2)/Ki(PLK1): 2952

## CC(Nc1ncc(C#N)c(-c2c[nH]c3ncc(C(F)(F)F)cc23)n1)c1ccc(N[C@H]2CCNC2)nc1 (stereo partly drawn) [Compound I-277, 2-(1-(6-((S)-pyrrolidin-3-ylamino)pyridin-3-yl)ethylamino)-4-(5-(trifluoromethyl)-1H-pyrrolo[2,3-b]pyridin-3-yl)pyrimidine-5-carbonitrile]
PLK3 (S38-A340)
  Ki(PLK3)/Ki(PLK1): 39
PLK1
  Ki: < 3 nM
